Values quoted from earlier work, collected in patent US20260224647A1, “Microbial compositions for treating joint inflammation” (Katholieke Universiteit Leuven, priority 2023, published 2026).

Test system: rheumatoid arthritis
Conditions: twice daily administration

Substance: Lactobacillus rhamnosus GG
- Activity of rheumatoid arthritis: no statistically significant differences
